Results taken from US20250313900A1, “COMPOSITIONS AND THERAPEUTIC AGENTS FOR MODULATING INFLAMMATORY RESPONSES ON BOTH TUMOR AND IMMUNE CELLS” (THE METHODIST HOSPITAL, priority 2022, published 2025).

What was measured:
MHC II = conditions: IFNγ stimulation
[1] = biological target: T1, Tumor necrosis factor receptor-associated factor-6 (TRAF6) (in HCC827-CT cells) (human, UniProt Q9Y4K3 1-522); test: co-immunoprecipitation and western blot, HCC827-CT cells
T1 sequence (looked up): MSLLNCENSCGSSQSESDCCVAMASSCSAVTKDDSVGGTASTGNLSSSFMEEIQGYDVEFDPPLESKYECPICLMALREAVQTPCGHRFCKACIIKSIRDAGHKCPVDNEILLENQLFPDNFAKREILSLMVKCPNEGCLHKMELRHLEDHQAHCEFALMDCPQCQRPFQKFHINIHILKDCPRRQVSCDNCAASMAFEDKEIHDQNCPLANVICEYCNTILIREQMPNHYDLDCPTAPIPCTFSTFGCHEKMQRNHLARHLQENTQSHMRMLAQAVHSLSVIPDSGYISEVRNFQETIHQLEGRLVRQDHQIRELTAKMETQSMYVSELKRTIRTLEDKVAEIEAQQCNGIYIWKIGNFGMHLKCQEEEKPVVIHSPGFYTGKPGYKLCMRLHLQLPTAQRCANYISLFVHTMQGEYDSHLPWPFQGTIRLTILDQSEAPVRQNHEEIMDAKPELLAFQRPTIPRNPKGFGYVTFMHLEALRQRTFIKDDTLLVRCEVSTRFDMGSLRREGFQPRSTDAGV

Molecule	higher levels of surface MHC class II in CMTM4 KO cells (MHC II)	binding result [1]
CCN(CC)CCCC(C)Nc1ccnc2cc(Cl)ccc12 (centres unmarked) [chloroquine]	abolished	–
CMTM6 (in HCC827-CT cells) (other, human, UniProt Q9NX76 1-183, looked up) MENGAVYSPTTEEDPGPARGPRSGLAAYFFMGRLPLLRRVLKGLQLLLSLLAFICEEVVSQCTLCGGLYFFEFVSCSAFLLSLLILIVYCTPFYERVDTTKVKSSDFYITLGTGCVFLLASIIFVSTHDRTSAEIAAIVFGFIASFMFLLDFITMLYEKRQESQLRKPENTTRAEALTEPLNA	–	no binding
